Immunogenic activity data for 1 substance are collected here from US10588962B2, “Carbohydrate-glycolipid conjugate vaccines” (Max-Planck-Gesellschaft zur Förderung der Wissenschaften …, priority 2012, dated 2020).

This experiment in a line: Immunogenic activity of further glycolipids conjugated to PS4. To be noted: glycolipid conjugated to PS4.

Consider “(2S,3S,4R)-1-(6-(Carbonyl-1-ethyl-2-(tri(1-ethanoyl)1-ethanoyl-2-amino)-α-D-galactopyranosyl)-2-hexacosanoylaminooctadecane-3,4-diol [Compound 27a]”, for which the immunogenic activity result was “showed immunogenic activity”.
